The results in this text go back to patent US20260102501A1, “ANTI-CANCER NUCLEAR HORMONE RECEPTOR-TARGETING COMPOUNDS” (Nuvation Bio Inc., priority 2022, published 2026).

Molecules are shown by their SMILES. Read-outs that look alike come from different tables or passages of the source. A value given as a limit tells only on which side of the number the result lay.

The target of assay [1] is T1, AR (cytosol from LnCaP cells) (Homo sapiens, UniProt P10275, T878A).
T1 sequence (P10275 1-920 T878A): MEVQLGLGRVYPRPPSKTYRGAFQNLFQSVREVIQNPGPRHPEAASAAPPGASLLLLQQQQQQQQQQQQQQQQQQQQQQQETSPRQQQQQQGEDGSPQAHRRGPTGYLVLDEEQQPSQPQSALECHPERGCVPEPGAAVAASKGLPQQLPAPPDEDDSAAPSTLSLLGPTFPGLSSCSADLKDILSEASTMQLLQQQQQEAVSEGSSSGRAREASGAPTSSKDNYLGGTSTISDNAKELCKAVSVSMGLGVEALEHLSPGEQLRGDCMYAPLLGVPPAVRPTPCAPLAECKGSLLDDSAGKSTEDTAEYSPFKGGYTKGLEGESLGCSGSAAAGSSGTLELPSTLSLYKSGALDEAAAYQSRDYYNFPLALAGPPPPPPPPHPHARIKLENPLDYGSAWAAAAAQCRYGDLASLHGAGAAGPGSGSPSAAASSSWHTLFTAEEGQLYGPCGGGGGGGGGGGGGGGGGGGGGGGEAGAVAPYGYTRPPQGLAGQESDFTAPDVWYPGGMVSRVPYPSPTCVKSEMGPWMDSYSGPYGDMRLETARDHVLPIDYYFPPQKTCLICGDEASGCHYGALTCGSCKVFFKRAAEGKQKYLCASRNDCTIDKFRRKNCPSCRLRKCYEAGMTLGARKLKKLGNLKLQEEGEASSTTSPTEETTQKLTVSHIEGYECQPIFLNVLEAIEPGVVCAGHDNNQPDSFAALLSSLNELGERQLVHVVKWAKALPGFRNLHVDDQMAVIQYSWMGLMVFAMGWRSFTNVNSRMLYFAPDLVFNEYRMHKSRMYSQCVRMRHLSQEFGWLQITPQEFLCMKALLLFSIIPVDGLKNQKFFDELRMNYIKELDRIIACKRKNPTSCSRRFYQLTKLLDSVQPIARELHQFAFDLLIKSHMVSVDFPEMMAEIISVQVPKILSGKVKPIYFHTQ
Put plainly: AR binding assay (3H-R1881 displacement).
Experimental: The plate was then centrifuged at 3000 rpm for 30 minutes at 4° C.

Another assay concerns 22Rv1 cells. Put plainly: Cell viability assay (CellTiterGlo). To be noted: Homo sapiens, 22Rv1, 144 h, read-out: 22RV1 (IC50, nM).
The next assay has as its system LNCap cells. Put plainly: Cell viability assay (CellTiterGlo). Type of assay: cell-based. As to conditions: Homo sapiens, 144 h. In general terms: In ATP-based viability assays light output follows the ATP content of the culture.
In the next assay the test system is IEC6 cells. The assay is described as follows: Cell viability assay (CellTiterGlo). To be noted: Rattus norvegicus, IEC-6, 144 h, read-out: IEC-6 (IC50, nM).
The mark [2] stands for this setting: 6 days incubation, CellTiterGlo, read-out: LNCap (IC50).

Experimental for 22Rv1 cells: (§1) Cell viability assay: LNCap, 22Rv1, MCF7, MDAMB361, T47D, and IEC6 cells were seeded at a density of 500-2000 cells/well in 96 well plates, and a ‘T0’ (timepoint 0) was included along with the assay plate. The plates were then incubated at 37° C., 5% CO2 in a cell culture incubator overnight. On the next day, the ‘T0’ plate was assayed using CellTiterGlo (Promega, Inc) according to the manufacturer's instructions. The appropriate compounds were diluted in DMSO and added to the assay plate (final DMSO concentration of 0.1-0.2%) on the next day. The assay plates were incubated for 6 days at 37° C., 5% CO2. After the incubation period, the plates were assayed using CellTiterGlo (Promega, Inc) according to the manufacturer's instructions and luminescence was read on the En Vision plate reader. […] GraphPadPrism was used to analyze the data and determine GI50/IC50 values.
Experimental for IEC6 cells: as §1

With `CC[C@@]1(O)C(=O)OCc2c1cc1n(c2=O)Cc2cc3c(CN4CCN(C(=O)C5CCN(c6ccc(C(=O)N[C@H]7CC[C@H](Oc8ccc(C#N)c(Cl)c8)CC7)nn6)CC5)CC4)c(OC(=O)N(C)c4ccccc4)ccc3nc2-1` [Compound 2, (S)-10-((4-(1-(6-(((1r,4r)-4-(3-Chloro-4-cyanophenoxy)cyclohexyl)carbamoyl)pyridazin-3-yl)piperidine-4-carbonyl)piperazin-1-yl)methyl)-4-ethyl-4-hydroxy-3,14-dioxo-3,4,12,14-tetrahydro-1H-pyrano[3′,4′:6,7]indolizino[1,2-b]quinolin-9-yl Methyl(phenyl)carbamate], the 50% inhibitory concentration (IC50) was 101 to 1000 nM in assay [1]; over 1000 nM in the assay with 22Rv1 cells; over 1000 nM in the assay with LNCap cells (read-out: LNCap (IC50, nM)).
As to `CC[C@@]1(O)C(=O)OCc2c1cc1n(c2=O)Cc2cc3c(CN(C)C(=O)C(C)(C)N(C)C(=O)CO[C@H]4CC[C@H]5[C@@H]6CC[C@H]7CC(=O)CC[C@]7(C)[C@H]6CC[C@]45C)c(O)ccc3nc2-1` [Compound 4, 2-(2-(((5S,8R,9S,10S,13S,14S,17S)-10,13-Dimethyl-3-oxohexadecahydro-1H-cyclopenta[a]phenanthren-17-yl)oxy)-N-methylacetamido)-N—(((S)-4-ethyl-4,9-dihydroxy-3,14-dioxo-3,4,12,14-tetrahydro-1H-pyrano[3′,4′:6,7]indolizino[1,2-b]quinolin-10-yl)methyl)-N,2-dimethylpropanamide], the half-inhibitory concentration (IC50) in the assay on 22Rv1 cells and in the assay on LNCap cells (setting [2]) was 101 to 1000 nM each time.
As for `CC[C@@]1(O)C(=O)OCc2c1cc1n(c2=O)Cc2cc3c(CN(C)C)c(OC(=O)N4CCN(C(=O)CCCCCNC(=O)c5ccc(N6C(=S)N(c7ccc(C#N)c(C(F)(F)F)c7)C(=O)C6(C)C)cc5F)CC4)ccc3nc2-1` [Compound 9, (S)-10-((Dimethylamino)methyl)-4-ethyl-4-hydroxy-3,14-dioxo-3,4,12,14-tetrahydro-1H-pyrano[3′,4′:6,7]indolizino[1,2-b]quinolin-9-yl 4-(6-(4-(3-(4-cyano-3-(trifluoromethyl)phenyl)-5,5-dimethyl-4-oxo-2-thioxoimidazolidin-1-yl)-2-fluorobenzamido)hexanoyl)piperazine-1-carboxylate], the IC50 in assay [1] is over 1000 nM; with 22Rv1 cells, 10 to 100 nM; in the assay on LNCap cells (read-out: LNCap (IC50, nM)), 10 to 100 nM; in the assay with IEC6 cells, over 1000 nM.
Consider `CC[C@@]1(O)C(=O)OCc2c1cc1n(c2=O)Cc2cc3c(CN4CCN(CC5CCN(c6ccc(C(=O)N[C@H]7CC[C@H](N(C)c8ccc(C#N)c(Cl)c8)CC7)nn6)CC5)CC4)c(O)ccc3nc2-1` [Compound 28, N-((1r,4r)-4-((3-Chloro-4-cyanophenyl)(methyl)amino)cyclohexyl)-6-(4-((4-(((S)-4-ethyl-4,9-dihydroxy-3,14-dioxo-3,4,12,14-tetrahydro-1H-pyrano[3′,4′:6,7]indolizino[1,2-b]quinolin-10-yl)methyl)piperazin-1-yl)methyl)piperidin-1-yl)pyridazine-3-carboxamide], for which the IC50 (in assay [1]; with 22Rv1 cells; in the assay on LNCap cells (setting [2])) was 10 to 100 nM throughout.
Take `CC[C@@]1(O)C(=O)OCc2c1cc1n(c2=O)Cc2cc3c(CN(C)C)c(OC(=O)N4CCN(CC5CCN(c6ccc(N7C(=S)N(c8ccc(C#N)c(Cl)c8)C(=O)C7(C)C)cc6)CC5)CC4)ccc3nc2-1` [Compound 58, (S)-10-((dimethylamino)methyl)-4-ethyl-4-hydroxy-3,14-dioxo-3,4,12,14-tetrahydro-1H-pyrano[3′,4′:6,7]indolizino[1,2-b]quinolin-9-yl 4-((1-(4-(3-(3-chloro-4-cyanophenyl)-5,5-dimethyl-4-oxo-2-thioxoimidazolidin-1-yl)phenyl)piperidin-4-yl)methyl)piperazine-1-carboxylate]: the IC50 in assay [1] was 10 to 100 nM; in the assay on 22Rv1 cells, 10 to 100 nM; in the assay with LNCap cells (read-out: LNCap (IC50, nM)), 101 to 1000 nM; with IEC6 cells, 101 to 1000 nM.
As to `CC[C@@]1(O)C(=O)OCc2c1cc1n(c2=O)Cc2cc3c(CN4CCN(C(=O)C5CCN(c6ccc(C(=O)N[C@H]7CC[C@H](Oc8ccc(C#N)c(Cl)c8)CC7)nn6)CC5)CC4)c(OC(=O)N4CCN(C)CC4)ccc3nc2-1` [Compound No. 10, (S)-10-((4-(1-(6-(((1r,4r)-4-(3-Chloro-4-cyanophenoxy)cyclohexyl)carbamoyl)pyridazin-3-yl)piperidine-4-carbonyl)piperazin-1-yl)methyl)-4-ethyl-4-hydroxy-3,14-dioxo-3,4,12,14-tetrahydro-1H-pyrano[3′,4′:6,7]indolizino[1,2-b]quinolin-9-yl 4-Methylpiperazine-1-carboxylate], the IC50 is 10 to 100 nM in assay [1]; over 1000 nM in the assay on 22Rv1 cells; over 1000 nM in the assay with LNCap cells (read-out: LNCap (IC50, nM)); over 1000 nM in the assay on IEC6 cells.
As for `CC[C@@]1(O)C(=O)OCc2c1cc1n(c2=O)Cc2cc3c(CN(C)C)c(OC(=O)N4CCN(C(=O)C5CCN(c6ccc(C(=O)N[C@H]7CC[C@H](N(C)c8ccc(C#N)c(Cl)c8)CC7)nn6)CC5)CC4)ccc3nc2-1` [Compound No. 11, (S)-10-((Dimethylamino)methyl)-4-ethyl-4-hydroxy-3,14-dioxo-3,4,12,14-tetrahydro-1H-pyrano[3′,4′:6,7]indolizino[1,2-b]quinolin-9-yl 4-(1-(6-(((1r,4r)-4-((3-chloro-4-cyanophenyl)(methyl)amino)-cyclohexyl)carbamoyl)pyridazin-3-yl)piperidine-4-carbonyl)piperazine-1-carboxylate], the concentration for half-maximal inhibition (IC50) in assay [1] was under 10 nM; with 22Rv1 cells, 10 to 100 nM; in the assay with LNCap cells (read-out: LNCap (IC50, nM)) it was 10 to 100 nM; in the assay on IEC6 cells it was 101 to 1000 nM.
Take `CC[C@@]1(O)C(=O)OCc2c1cc1n(c2=O)Cc2cc3c(CN4CCN(C(=O)C5CCN(c6ccc(C(=O)N[C@H]7CC[C@H](Oc8ccc(C#N)c(Cl)c8)CC7)nn6)CC5)CC4)c(OC(=O)N4CCC(N5CCCCC5)CC4)ccc3nc2-1` [Compound No. 13, (S)-10-((4-(1-(6-(((1r,4r)-4-(3-Chloro-4-cyanophenoxy)cyclohexyl)carbamoyl)pyridazin-3-yl)piperidine-4-carbonyl)piperazin-1-yl)methyl)-4-ethyl-4-hydroxy-3,14-dioxo-3,4,12,14-tetrahydro-1H-pyrano[3′,4′:6,7]indolizino[1,2-b]quinolin-9-yl [1,4′-bipiperidine]-1′-carboxylate]: the 50% inhibitory concentration (IC50) is 10 to 100 nM in assay [1]; over 1000 nM in the assay with 22Rv1 cells; over 1000 nM in the assay with LNCap cells (read-out: LNCap (IC50, nM)); over 1000 nM in the assay on IEC6 cells.
For the compound `CC[C@@]1(O)C(=O)OCc2c1cc1n(c2=O)Cc2cc3c(CN4CCN(C(=O)C5CCN(c6ccc(C(=O)N[C@H]7CC[C@H](N(C)c8ccc(C#N)c(Cl)c8)CC7)nn6)CC5)CC4)c(O)ccc3nc2-1` [Compound No. 15, N-((1r,4r)-4-((3-Chloro-4-cyanophenyl)(methyl)amino)cyclohexyl)-6-(4-(4-(((S)-4-ethyl-4,9-dihydroxy-3,14-dioxo-3,4,12,14-tetrahydro-1H-pyrano[3′,4′:6,7]indolizino[1,2-b]quinolin-10-yl)methyl)-piperazine-1-carbonyl)piperidin-1-yl)pyridazine-3-carboxamide], the half-maximal inhibitory concentration (IC50) in assay [1] was under 10 nM; in the assay with 22Rv1 cells, 10 to 100 nM; with LNCap cells (setting [2]), 10 to 100 nM; with IEC6 cells, over 1000 nM.
As for `CC[C@@]1(O)C(=O)OCc2c1cc1n(c2=O)Cc2cc3c(CN(C)C)c(OCC4CCN(C(=O)C5CCN(c6ccc(C(=O)N[C@H]7CC[C@H](Oc8ccc(C#N)c(Cl)c8)CC7)nn6)CC5)CC4)ccc3nc2-1` [Compound No. 16, N-((1r,4r)-4-(3-Chloro-4-cyanophenoxy)cyclohexyl)-6-(4-(4-((((S)-10-((dimethylamino)-methyl)-4-ethyl-4-hydroxy-3,14-dioxo-3,4,12,14-tetrahydro-1H-pyrano[3′,4′:6,7]indolizino[1,2-b]quinolin-9-yl)oxy)methyl)piperidine-1-carbonyl)piperidin-1-yl)pyridazine-3-carboxamide], the IC50 in assay [1] is 10 to 100 nM; with 22Rv1 cells, 101 to 1000 nM; in the assay on LNCap cells (setting [2]), 101 to 1000 nM; with IEC6 cells it was over 1000 nM.

The IC50 is the concentration needed to halve the response being measured.
